Assay results reported in PMC12259267, “Disruption of the KLHL37–N-Myc complex restores N-Myc degradation and arrests neuroblastoma growth in mouse models” (The Journal of Clinical Investigation, 2025).

Target: T1, KLHL37 (Homo sapiens, UniProt O14682)
T1 construct: gene ENC1; recombinant KLHL37-His (full-length cDNA, pET-28a, E. coli)
T1 sequence (O14682 1-589): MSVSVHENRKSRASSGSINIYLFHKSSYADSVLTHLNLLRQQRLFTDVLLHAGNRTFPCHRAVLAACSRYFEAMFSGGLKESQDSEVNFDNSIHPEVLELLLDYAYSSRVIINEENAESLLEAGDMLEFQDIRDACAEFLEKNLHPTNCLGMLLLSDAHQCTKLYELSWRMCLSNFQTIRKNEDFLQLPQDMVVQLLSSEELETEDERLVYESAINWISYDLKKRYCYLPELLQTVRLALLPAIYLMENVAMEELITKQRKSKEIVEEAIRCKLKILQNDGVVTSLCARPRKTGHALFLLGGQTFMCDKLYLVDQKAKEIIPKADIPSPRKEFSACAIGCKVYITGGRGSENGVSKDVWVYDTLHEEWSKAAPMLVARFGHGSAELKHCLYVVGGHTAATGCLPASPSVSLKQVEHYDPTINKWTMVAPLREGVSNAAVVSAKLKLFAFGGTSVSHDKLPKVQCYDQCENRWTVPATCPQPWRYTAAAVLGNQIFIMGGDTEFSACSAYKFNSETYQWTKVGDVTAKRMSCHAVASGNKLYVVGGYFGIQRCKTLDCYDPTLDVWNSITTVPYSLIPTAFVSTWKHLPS
Test: SPR (Biacore X100, KLHL37-His immobilized on CM5 chip)
Assay type: binding

CC1(C)CC[C@]2(NC(=O)C(C)(F)F)CC[C@]3(C)[C@H](C(=O)C=C4[C@@]5(C)C=C(C#N)C(=O)C(C)(C)[C@@H]5CC[C@]43C)[C@@H]2C1 [RTA-408]
Kd: 15.2 µM
